# Results: US11337971B2, “Dopamine D3 receptor selective antagonists/partial agonists and uses thereof” (THE UNITED STATES OF AMERICA, AS REPRESENTED BY THE …, priority 2018, dated 2022)
# Read-outs that look alike come from different tables or passages of the source.
# Legend:
# [1] = target: human D2R (Homo sapiens (Human), UniProt P14416); assay: Radioligand competition binding, [3H]N-methylspiperone, HEK293 membranes expressing human D2R; settings: read-out: D2R Ki ± SEM
# Protocol: (§1) Binding at dopamine D2-like receptors was determined using previously described methods. […] Upon reaching 80-90% confluence, cells were harvested using pre-mixed Earle's Balanced Salt Solution (EBSS) with […] EDTA (Life Technologies) and centrifuged at 3000 rpm for 10 min at 21° C. The supernatant was removed and the pellet was resuspended in 10 mL hypotonic lysis buffer (5 mM MgCl2.6H2O, 5 mM Tris, pH 7.4 at 4° C.) and centrifuged at 20,000 rpm for 30 min at 4° C. The pellet was then resuspended in fresh EBSS buffer made from 8.7 g/L Earle's Balanced Salts without phenol red (US Biological, Salem, Mass.), 2.2 g/L sodium bicarbonate, pH to 7.4. A Bradford protein assay (Bio-Rad, Hercules, Calif.) was used to determine the protein concentration and membranes were diluted to 500 μg/mL and stored in a −80° C. freezer for later use.
# (§2) Radioligand competition binding experiments were conducted using thawed membranes. Test compounds were freshly dissolved in 30% DMSO and 70% H2O to a stock concentration of 100 μM. To assist the solubilization of free-base compounds, 10 μl of glacial acetic acid was added along with the DMSO. Each test compound was then diluted into 13 half-log serial dilutions using 30% DMSO vehicle; final test concentrations ranged from 10 μM to 10 pM. Previously frozen membranes were diluted in fresh EBSS to a 100 μg/mL (for hD2R or hD3R) or 200 μg/mL (hD4R) stock for binding. […] buffer with 0.2 mM sodium metabisulfite, 50 μl of diluted test compound, 100 μl of membranes (10 μg total protein for hD2R or hD3R, 20 μg total protein for hD4R), and 50 μl of [^3H]N-methylspiperone (0.4 nM final concentration; Perkin Elmer). Nonspecific binding was determined using 10 μM butaclamol (Sigma-Aldrich, St. Louis, Mo.) and total binding was determined with 30% DMSO vehicle. All compound dilutions were tested in triplicate and the reaction incubated for one hour at room temperature. The reaction was terminated by filtration through Whatman GF/B filters, presoaked for one hour in 0.5% polyethylenimine, using a Brandel R48 filtering manifold (Brandel Instruments, Gaithersburg, Md.). The filters were washed 3 times with 3 mL of ice cold EBSS buffer and transferred to scintillation vials. […] IC50 values for each compound were determined from dose-response curves and Ki values were calculated using the Cheng-Prusoff equation; these analyses were performed using GraphPad Prism version 5.00 for Windows (GraphPad Software, San Diego, Calif.). Reported Ki values were determined from least three independent experiments.
# (§3) The binding affinities of the compounds were evaluated by performing competition binding studies with [^3H]N-methylspiperone using membranes prepared from HEK293 cells expressing either the human D2R or D3R.
# [2] = target: human D4R (Homo sapiens (Human), UniProt P21917); assay: Radioligand competition binding, [3H]N-methylspiperone, HEK293 membranes expressing human D4R; settings: Table 1A; for Ki: [3H]N-methylspiperone, read-out: D4R Ki ± SEM; for D4/D2 / D4/D3: ratio of Ki values
# human D4R, sequence (P21917 whole entry): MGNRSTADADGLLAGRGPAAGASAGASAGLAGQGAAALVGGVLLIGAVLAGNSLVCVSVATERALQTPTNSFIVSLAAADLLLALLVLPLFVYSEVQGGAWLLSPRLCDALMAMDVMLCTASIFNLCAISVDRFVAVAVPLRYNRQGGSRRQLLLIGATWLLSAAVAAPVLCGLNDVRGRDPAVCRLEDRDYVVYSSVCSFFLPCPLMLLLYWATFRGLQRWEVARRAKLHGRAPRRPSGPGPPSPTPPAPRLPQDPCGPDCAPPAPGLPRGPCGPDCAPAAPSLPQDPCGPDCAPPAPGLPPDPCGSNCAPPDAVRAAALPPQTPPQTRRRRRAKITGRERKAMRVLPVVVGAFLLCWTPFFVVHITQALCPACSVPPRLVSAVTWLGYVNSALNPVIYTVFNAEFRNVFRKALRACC
# Protocol: Binding at dopamine D2-like receptors was determined using previously described methods. (Chen et al. “Tranylcypromine substituted cis-hydroxycyclobutylnaphthamides as potent and selective dopamine D(3) receptor antagonists.” J. Med. Chem. 2014, 57, 4962-4968) Membranes were prepared from HEK293 cells expressing human D2R, D3R or D4R, grown in a 50:50 mix of DMEM and Ham's F12 culture media, supplemented with 20 mM HEPES, 2 mM L-glutamine, 0.1 mM non-essential amino acids, 1× antibiotic/antimycotic, 10% heat-inactivated fetal bovine serum, and 200 μg/mL hygromycin (Life Technologies, Grand Island, N.Y.) and kept in an incubator at 37° C. and 5% CO2. Upon reaching 80-90% confluence, cells were harvested using pre-mixed Earle's Balanced Salt Solution (EBSS) with […] EDTA (Life Technologies) and centrifuged at 3000 rpm for 10 min at 21° C. The supernatant was removed and the pellet was resuspended in 10 mL hypotonic lysis buffer (5 mM MgCl2.6H2O, 5 mM Tris, pH 7.4 at 4° C.) and centrifuged at 20,000 rpm for 30 min at 4° C. The pellet was then resuspended in fresh EBSS buffer made from 8.7 g/L Earle's Balanced Salts without phenol red (US Biological, Salem, Mass.), 2.2 g/L sodium bicarbonate, pH to 7.4. A Bradford protein assay (Bio-Rad, Hercules, Calif.) was used to determine the protein concentration and membranes were diluted to 500 μg/mL and stored in a −80° C. freezer for later use.
# Radioligand competition binding experiments were conducted using thawed membranes. Test compounds were freshly dissolved in 30% DMSO and 70% H2O to a stock concentration of 100 μM. To assist the solubilization of free-base compounds, 10 μl of glacial acetic acid was added along with the DMSO. Each test compound was then diluted into 13 half-log serial dilutions using 30% DMSO vehicle; final test concentrations ranged from 10 μM to 10 pM. Previously frozen membranes were diluted in fresh EBSS to a 100 μg/mL (for hD2R or hD3R) or 200 μg/mL (hD4R) stock for binding. Radioligand competition experiments were conducted in glass tubes containing 300 μl fresh EBSS buffer with 0.2 mM sodium metabisulfite, 50 μl of diluted test compound, 100 μl of membranes (10 μg total protein for hD2R or hD3R, 20 μg total protein for hD4R), and 50 μl of [^3H]N-methylspiperone (0.4 nM final concentration; Perkin Elmer). Nonspecific binding was determined using 10 μM butaclamol (Sigma-Aldrich, St. Louis, Mo.) and total binding was determined with 30% DMSO vehicle. All compound dilutions were tested in triplicate and the reaction incubated for one hour at room temperature. The reaction was terminated by filtration through Whatman GF/B filters, presoaked for one hour in 0.5% polyethylenimine, using a Brandel R48 filtering manifold (Brandel Instruments, Gaithersburg, Md.). The filters were washed 3 times with 3 mL of ice cold EBSS buffer and transferred to scintillation vials. 3 mL CytoScint liquid scintillation cocktail (MP Biomedicals, Solon, Ohio) was added and vials were counted using a Perkin Elmer Tri-Carb 2910 TR liquid scintillation counter (Waltham, Mass.). IC50 values for each compound were determined from dose-response curves and Ki values were calculated using the Cheng-Prusoff equation; these analyses were performed using GraphPad Prism version 5.00 for Windows (GraphPad Software, San Diego, Calif.). Reported Ki values were determined from least three independent experiments.
# [3] = target: 5-HT1A (Homo sapiens (Human), UniProt P08908); assay: 5-HT1A [3H]-8-OH-DPAT binding; settings: read-out: 5-HT1A [3H]-8-OH-DPAT Ki ± SEM
# 5-HT1A, sequence (P08908 whole entry, species assumed): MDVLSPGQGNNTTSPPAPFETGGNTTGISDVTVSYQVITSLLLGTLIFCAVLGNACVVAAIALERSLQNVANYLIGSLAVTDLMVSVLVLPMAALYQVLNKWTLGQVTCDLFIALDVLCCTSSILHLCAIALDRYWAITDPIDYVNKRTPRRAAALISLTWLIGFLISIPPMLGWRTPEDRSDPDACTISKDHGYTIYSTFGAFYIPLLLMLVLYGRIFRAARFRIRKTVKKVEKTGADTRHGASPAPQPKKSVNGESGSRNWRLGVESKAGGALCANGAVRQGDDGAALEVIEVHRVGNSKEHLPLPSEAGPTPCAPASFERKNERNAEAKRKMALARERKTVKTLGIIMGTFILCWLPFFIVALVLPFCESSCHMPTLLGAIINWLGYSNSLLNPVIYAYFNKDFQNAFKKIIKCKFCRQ
# [4] = target: 5-HT2A (Homo sapiens (Human), UniProt P28223); assay: 5-HT2A [125I]DOI binding; settings: read-out: 5-HT2A [125I]DOI Ki ± SEM
# 5-HT2A, sequence (P28223 whole entry, species assumed): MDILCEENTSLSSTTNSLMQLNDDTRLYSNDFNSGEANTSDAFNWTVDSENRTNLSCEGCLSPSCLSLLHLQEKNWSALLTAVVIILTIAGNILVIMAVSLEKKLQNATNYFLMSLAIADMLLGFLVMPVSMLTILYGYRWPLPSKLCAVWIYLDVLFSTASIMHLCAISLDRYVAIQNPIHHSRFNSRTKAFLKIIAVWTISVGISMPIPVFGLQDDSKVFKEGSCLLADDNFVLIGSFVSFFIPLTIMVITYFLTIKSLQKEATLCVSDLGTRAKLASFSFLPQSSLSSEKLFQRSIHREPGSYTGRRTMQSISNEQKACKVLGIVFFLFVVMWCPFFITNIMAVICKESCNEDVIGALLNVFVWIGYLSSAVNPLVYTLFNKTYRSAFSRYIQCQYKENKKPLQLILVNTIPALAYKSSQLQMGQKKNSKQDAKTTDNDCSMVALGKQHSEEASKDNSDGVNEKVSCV
# [5] = target: 5-HT2C (Homo sapiens (Human), UniProt P28335); assay: 5-HT2C [125I]DOI binding; settings: read-out: 5-HT2C [125I]DOI Ki ± SEM
# 5-HT2C, sequence (P28335 33-458, species assumed): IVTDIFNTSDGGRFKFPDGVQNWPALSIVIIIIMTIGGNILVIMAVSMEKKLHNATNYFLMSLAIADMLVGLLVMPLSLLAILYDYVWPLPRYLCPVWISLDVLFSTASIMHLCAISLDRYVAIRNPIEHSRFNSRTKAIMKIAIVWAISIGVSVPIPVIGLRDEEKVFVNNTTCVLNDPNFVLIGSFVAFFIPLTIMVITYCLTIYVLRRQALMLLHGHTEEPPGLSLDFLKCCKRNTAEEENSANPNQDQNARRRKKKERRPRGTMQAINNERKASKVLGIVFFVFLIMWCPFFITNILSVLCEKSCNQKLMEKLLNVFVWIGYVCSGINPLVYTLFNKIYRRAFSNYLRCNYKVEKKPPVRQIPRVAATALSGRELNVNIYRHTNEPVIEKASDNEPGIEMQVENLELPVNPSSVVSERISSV
# [6] = target: human D3R (Homo sapiens (Human), UniProt P35462); assay: Radioligand competition binding, [3H]N-methylspiperone, HEK293 membranes expressing human D3R; settings: for Ki: read-out: D3R Ki ± SEM; for D2/D3: ratio of Ki values
# human D3R, sequence (P35462 whole entry): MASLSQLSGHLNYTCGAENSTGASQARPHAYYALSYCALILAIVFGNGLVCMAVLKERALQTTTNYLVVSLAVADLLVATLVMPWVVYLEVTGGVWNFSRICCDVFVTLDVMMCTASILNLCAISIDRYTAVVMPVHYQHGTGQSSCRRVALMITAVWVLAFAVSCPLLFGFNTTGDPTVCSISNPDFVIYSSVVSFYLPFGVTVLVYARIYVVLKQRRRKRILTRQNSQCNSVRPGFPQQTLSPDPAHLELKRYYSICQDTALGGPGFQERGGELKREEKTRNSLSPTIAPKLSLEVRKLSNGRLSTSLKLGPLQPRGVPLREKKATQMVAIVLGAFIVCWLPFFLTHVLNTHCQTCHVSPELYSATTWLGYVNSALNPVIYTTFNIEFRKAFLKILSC
# Protocol: as §1, §2, §3
# [7] = target: human dopamine D3R (Homo sapiens (Human), UniProt P35462); assay: D3R mitogenesis assay: stimulation or inhibition of quinpirole-stimulated mitogenesis in CHO cells; format: cell-based; settings: inhibition of quinpirole-stimulated mitogenesis
# human dopamine D3R, sequence (P35462 whole entry): as above
# [8] = Phase I metabolic stability in rat liver microsomes; format: in vitro ADME; settings: phase I metabolic stability in rat liver microsomes
# Text: Rat Liver Microsome Metabolic Stability: Test compounds including 3-F analogues (C4a, C4b, C5a, C5b) and 29, 19 as well as the R-, S-enantiomers of C4a, C5a, 29 and 19 were screened for phase I metabolic stability in rat liver microsomes.
# [9] = Table 1A, HEK 293 cells transfected with hD2LR, [3H]N-methylspiperone
# [10] = Table 1B, [3H]-N-methylspiperone competition, D2LR, 96-well plates
# [11] = Table 1B, [3H]-N-methylspiperone competition, 96-well plates
# [12] = Table 2b, read-out: Antagonist IC50 ± S.E.M.
# [13] = Table 1A, HEK 293 cells transfected with hD3R, [3H]N-methylspiperone
# [14] = Table 2a, read-out: Antagonist IC50 ± SEM
# human D2R, sequence (P14416 whole entry): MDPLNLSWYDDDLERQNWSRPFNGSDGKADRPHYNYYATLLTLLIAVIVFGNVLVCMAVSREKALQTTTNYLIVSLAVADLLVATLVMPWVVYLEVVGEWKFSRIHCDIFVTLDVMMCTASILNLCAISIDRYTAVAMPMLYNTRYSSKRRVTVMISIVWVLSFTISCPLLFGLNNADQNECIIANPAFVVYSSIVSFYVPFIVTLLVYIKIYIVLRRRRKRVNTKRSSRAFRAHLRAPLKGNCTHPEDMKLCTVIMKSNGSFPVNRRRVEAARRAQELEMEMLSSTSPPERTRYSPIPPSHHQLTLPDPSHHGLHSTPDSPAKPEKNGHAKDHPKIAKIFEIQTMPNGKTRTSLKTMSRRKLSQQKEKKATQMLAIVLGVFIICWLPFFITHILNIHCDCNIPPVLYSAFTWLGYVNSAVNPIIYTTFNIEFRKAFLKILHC
Compound,"Ki [1, 9] [µM]","Ki [1, 10] [µM]",Ki ([1]; Table 1C) [µM],Ki [2] [µM],Ki ([3]; Table 3a) [µM],Ki ([4]; Table 3a) [µM],Ki ([5]; Table 3a) [µM],"Ki [6, 11] [µM]",D2/D3 ([6]; Table 1B),D2/D3 ([6]; Table 1C),Ki ([6]; Table 1C) [µM],"IC50 [7, 12] [µM]",Ki ([3]; Table 3b) [µM],Ki ([4]; Table 3b) [µM],% intact/parent remaining [8] [%],"Ki [6, 13] [µM]",D2/D3 ([6]; Table 1A),D4/D2 [2],D4/D3 [2],"IC50 [7, 14] [µM]",other results
"CCc1cccc(N2CCN(CC(O)CCNC(=O)c3cc4ccccc4[nH]3)CC2)c1Cl (racemic) [Compound 19, N-(4-(4-(2-chloro-3-ethylphenyl)piperazin-1-yl)-3-hydroxybutyl)-1H-indole-2-carboxamide]",0.151 ± 0.0254,0.119 ± 0.0111,0.132 ± 0.0127,5.52 ± 1.66,0.88 ± 0.16,0.0281 ± 0.0097,0.113 ± 0.033,,,,,,,,,,,,,,
"CCc1cc(Cl)c(OC)c(N2CCN(CCCCNC(=O)c3cc4ccccc4[nH]3)CC2)c1 [Compound 28, N-(4-(4-(3-Chloro-5-ethyl-2-methoxyphenyl)piperazin-1-yl)butyl)-1H-indole-2-carboxamide]",0.0278 ± 0.00671,,,1.04 ± 0.279,2.33 ± 0.7,0.0601 ± 0.0095,0.144 ± 0.037,,,,,,,,,0.000341 ± 3.12e-05,82,38,3065,0.33 ± 0.1,
"CCc1cc(Cl)c(OC)c(N2CCN(CCCCNC(=O)c3cc4ccccc4o3)CC2)c1 [Compound 30, N-(4-(4-(3-Chloro-5-ethyl-2-methoxyphenyl)piperazin-1-yl)butyl)benzofuran-2-carboxamide]",0.137 ± 0.009,,,0.714 ± 0.293,0.56 ± 0.17,0.025 ± 0.0066,0.055 ± 0.017,,,,,,,,,0.00319 ± 0.000268,43,5.2,224,0.42 ± 0.13,
"CCc1cc(Cl)c(OC)c(N2CCN(CC(O)CCNC(=O)c3cc4ccccc4o3)CC2)c1 (stereo not shown) [Compound 31, N-(4-(4-(3-Chloro-5-ethyl-2-methoxyphenyl)piperazin-1-yl)-3-hydroxybutyl)benzofuran-2-carboxamide]",1.62 ± 0.339,,,5.29 ± 0.319,2.41 ± 0.83,0.0429 ± 0.0068,0.268 ± 0.034,,,,,,,,,0.0361 ± 0.005,45,3.3,146,0.95 ± 0.35,

# The next lines start with results.
"Ki [1, 9] [µM]","Ki [1, 10] [µM]",Ki ([1]; Table 1C) [µM],Ki [2] [µM],Ki ([3]; Table 3a) [µM],Ki ([4]; Table 3a) [µM],Ki ([5]; Table 3a) [µM],"Ki [6, 11] [µM]",D2/D3 ([6]; Table 1B),D2/D3 ([6]; Table 1C),Ki ([6]; Table 1C) [µM],"IC50 [7, 12] [µM]",Ki ([3]; Table 3b) [µM],Ki ([4]; Table 3b) [µM],% intact/parent remaining [8] [%],"Ki [6, 13] [µM]",D2/D3 ([6]; Table 1A),D4/D2 [2],D4/D3 [2],"IC50 [7, 14] [µM]",Compound,other results
,27.1 ± 11.6,20.8 ± 7.06,,,,,0.028 ± 0.00553,968,746,0.0279 ± 0.00564,0.51 ± 0.13,9.5 ± 3,6.6 ± 1.4,~75,,,,,,"CCc1cc(Cl)c(OC)c(N2CCN(CC(F)CCNC(=O)c3cc4ccccc4[nH]3)CC2)c1 (racemic) [Compound C4a, N-(4-(4-(3-chloro-5-ethyl-2-methoxyphenyl)piperazin-1-yl)-3-fluorobutyl)-1H-indole-2-carboxamide]",
,9.74 ± 2.1,10.8 ± 2.29,,,,,0.0899 ± 0.0123,108,108,0.0999 ± 0.0134,0.49 ± 0.15,2.66 ± 0.57,2.99 ± 0.53,12,,,,,,"CCc1cc(Cl)c(OC)c(N2CCN(CC(F)CCNC(=O)c3cc4ccccc4o3)CC2)c1 (racemic) [Compound C4b, N-(4-(4-(3-chloro-5-ethyl-2-methoxyphenyl)piperazin-1-yl)-3-fluorobutyl)benzofuran-2-carboxamide]",Ki ([5]; Table 3b): 1.78 ± 0.39 µM
,0.124 ± 0.0158,0.247 ± 0.0574,,,,,0.000482 ± 0.00015,257,327,0.000756 ± 0.000185,0.095 ± 0.031,0.91 ± 0.12,0.62 ± 0.12,38,,,,,,"CCc1cccc(N2CCN(CC(F)CCNC(=O)c3cc4ccccc4[nH]3)CC2)c1Cl (racemic) [Compound C5a, N-(4-(4-(2-chloro-3-ethylphenyl)piperazin-1-yl)-3-fluorobutyl)-1H-indole-2-carboxamide]",D3R selectivity over D2R (D2R/D3R) [6]: 327 fold; Ki ([5]; Table 3b): 0.58 ± 0.16 µM
